The target of one test is T1, PDK1 (Homo sapiens, UniProt O15530).
T1 construct: His6 (N)
T1 sequence (O15530 51-556 limits assumed): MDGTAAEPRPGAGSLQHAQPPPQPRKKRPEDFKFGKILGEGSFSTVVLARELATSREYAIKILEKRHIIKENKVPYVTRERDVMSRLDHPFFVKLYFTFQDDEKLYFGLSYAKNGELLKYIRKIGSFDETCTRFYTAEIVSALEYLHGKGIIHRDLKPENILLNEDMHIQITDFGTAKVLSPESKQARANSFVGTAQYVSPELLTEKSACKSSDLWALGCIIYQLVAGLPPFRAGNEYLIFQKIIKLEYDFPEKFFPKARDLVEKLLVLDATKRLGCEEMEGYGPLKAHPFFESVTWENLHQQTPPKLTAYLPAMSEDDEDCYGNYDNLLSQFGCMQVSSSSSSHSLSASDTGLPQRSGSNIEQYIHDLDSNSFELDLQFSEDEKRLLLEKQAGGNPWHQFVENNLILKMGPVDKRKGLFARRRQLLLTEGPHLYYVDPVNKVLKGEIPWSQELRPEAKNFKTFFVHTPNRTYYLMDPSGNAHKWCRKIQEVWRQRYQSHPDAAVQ
In words: Test for the inhibition of PDK1 (flashplate, 33P-ATP). The class given is biochemical. The conditions noted are these: His6-PDK1 3.4 nM, 4 μM ATP, 30° C., 60 min. The essentials: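 His6-PDK1(1-50) (3.4 nM) and a biotinylated peptide substrate (400 nM) were incubated 60 min at 30° C with 4 μM ATP containing ^33P-ATP and test compound. Incorporated radioactivity was counted after subtracting a 100 nM staurosporine blank and expressed as % of control; IC50 derived from these.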

Test [1] relates to PDK1 kinase activity (phospho-T308-PKB) in PC3 cells. In words: Cellular testing of PDK1 kinase inhibitors in PC3 cells (Luminex, phospho-T308-PKB). In kind it is cell-based. The conditions noted are these: 30 min incubation, serum-free, read-out: IC50 PC3 cells [P-PKB T308]. The procedure: Method for the Cellular Testing of PDK1 Kinase Inhibitors in PC3 Cells.
The cellular assay for the determination of the PDK1 kinase activity is carried out as a Luminex assay in the 96-well format. PC3 cells are shown at 20,000 cells per well in 100 μl of medium (45% of […]/45% of Ham's F12/10% of FCS) and incubated on the following day for 30 min with a serial dilution of the test substance (7 concentrations) under serum-free conditions. The cells are subsequently lysed using 90 μl of lysis buffer (20 mM tris/HCl pH 8.0, 150 mM NaCl, 1% of NP40, 10% of glycerol, 1% of phosphatase inhibitor I, 1% of phosphatase inhibitor II, 0.1% of protease inhibitor cocktail III, 0.01% of benzonase) per well, and the lysates are separated off from insoluble cell constituents by means of centrifugation through a 96-well filter plate (0.65 μm). The lysates are incubated overnight at 4° C. with shaking with Luminex beads to which an anti-total PKB antibody is coupled. The detection is carried out on the following day by addition of a phospho-T308-PKB antibody and a species-specific peroxidase-labelled secondary antibody. The detection of phospho-T308-PKB is carried out by measurement in a Luminex100 instrument by determination of 100 events per cavity in a measurement time of 60 sec. As pharmacological blank, the signals obtained from cells which have been treated with 10 μM staurosporin are subtracted from all other batches. The control value used for maximum phosphorylation of PKB on T308 are the signals from cells which have only been treated with the solvent (0.3% of DMSO). The values of the batches treated with test substance are calculated therefrom as percentage of control, and IC50 values are determined by means of RS1.

Read-outs that look alike come from different tables or passages of the source.

Broadly, the IC50 is the concentration at which inhibition is half-maximal.

For `CCCC(OCOC)(c1cccc(F)c1)c1cc(-c2c[nH]c3ncc(-c4cnn(C)c4)cc23)nc(N)n1` (stereo not shown) [A117, 4-[1-(3-fluorophenyl)-1-methoxymethoxybutyl]-6-[5-(1-methyl-1H-pyrazol-4-yl)-1H-pyrrolo[2,3-b]pyridin-3-yl]pyrimidin-2-ylamine], the IC50 against PDK1 came to 0.45 µM; in test [1] (Homo sapiens, PC-3, 0.5 h) it was 0.98 µM.

With `Cn1cc(-c2cnc3[nH]cc(-c4cc(C(C)(O)c5ccncc5)nc(N)n4)c3c2)cn1` (single isomer, unassigned) [A41, 1-{2-amino-6-[5-(1-methyl-1H-pyrazol-4-yl)-1H-pyrrolo[2,3-b]pyridin-3-yl]-pyrimidin-4-yl}-1-pyridin-4-ylethanol], the IC50 against PDK1 is 0.0034 µM; in test [1] (Homo sapiens, PC-3, 0.5 h) it was 0.98 µM.

Take `Cn1cc(-c2cnc3[nH]cc(-c4cc(C(C)(O)c5ccccc5F)nc(N)n4)c3c2)cn1` (single isomer, unassigned) [A103, 1-{2-amino-6-[5-(1-methyl-1H-pyrazol-4-yl)-1H-pyrrolo[2,3-b]pyridin-3-yl]-pyrimidin-4-yl}-1-(2-fluorophenyl)ethanol]: the half-inhibitory concentration (IC50) against PDK1 worked out at 0.01 µM; in test [1] (Homo sapiens, PC-3, 0.5 h), 0.061 µM.

As for `Cn1cc(-c2cnc3[nH]cc(-c4cc([C@@](O)(c5ccccc5)C(F)(F)F)nc(N)n4)c3c2)cn1` (single isomer, unassigned) [A123], the IC50 came out at 0.078 µM against PDK1 and 0.25 µM in test [1] (Homo sapiens, PC-3, 0.5 h).

For the compound `CC[C@@](O)(c1ccccc1)c1cc(-c2c[nH]c3ncc(-c4cnn(CC(=O)N5CCCCC5)c4)cc23)nc(N)n1` (single isomer, unassigned) [A136], the IC50 at PDK1 came to 0.21 µM; in test [1] (Homo sapiens, PC-3, 0.5 h) it was 0.87 µM.

For the compound `CCC[C@@](O)(c1cc(-c2c[nH]c3ncc(-c4cnn(C)c4)cc23)nc(N)n1)c1ccccc1F` (single isomer, unassigned) [A129], the IC50 on PDK1 stood at 0.016 µM; in test [1] (Homo sapiens, PC-3, 0.5 h) it was 0.007 µM.

`Cn1cc(-c2cnc3[nH]cc(-c4cc(C(C)(O)c5cccc(F)c5)nc(N)n4)c3c2F)cn1` (stereo not shown) [A106, 1-{2-amino-6-[4-fluoro-5-(1-methyl-1H-pyrazol-4-yl)-1H-pyrrolo-[2,3-b]pyridin-3-yl]pyrimidin-4-yl}-1-(3-fluorophenyl)ethanol]: the IC50 against PDK1 was found to be 0.026 µM; in test [1] (Homo sapiens, PC-3, 0.5 h), 0.0051 µM.

In the case of `CCCC(O)(c1cc(-c2c[nH]c3ncc(-c4cnn(C)c4)cc23)nc(N)n1)c1ccccc1F` (stereo not shown) [A118, 1-{2-amino-6-[5-(1-methyl-1H-pyrazol-4-yl)-1H-pyrrolo[2,3-b]pyridin-3-yl]-pyrimidin-4-yl}-1-(2-fluorophenyl)butan-1-ol], the IC50 amounted to 0.029 µM at PDK1 and 0.24 µM in test [1] (Homo sapiens, PC-3, 0.5 h).

For the compound `CCC[C@](O)(c1cc(-c2c[nH]c3ncc(-c4cnn(C)c4)cc23)nc(N)n1)c1ccccc1F` (single isomer, unassigned) [A130], the IC50 on PDK1 was determined as 0.071 µM; in test [1] (Homo sapiens, PC-3, 0.5 h), 0.018 µM.

Turning to `Cn1cc(-c2cnc3[nH]cc(-c4cc(C(O)(c5ccccc5)C(F)(F)F)nc(N)n4)c3c2)cn1` (stereo not shown) [A69, 1-{2-amino-6-[5-(1-methyl-1H-pyrazol-4-yl)-1H-pyrrolo[2,3-b]pyridin-3-yl]-pyrimidin-4-yl}-2,2,2-trifluoro-1-phenylethanol], the IC50 against PDK1 was found to be 0.15 µM; in test [1] (Homo sapiens, PC-3, 0.5 h), 0.24 µM.

On to `CC(C)C(O)(c1cccc(F)c1)c1cc(-c2c[nH]c3ncc(-c4cnn(C)c4)cc23)nc(N)n1` (stereo not shown) [A115, 1-{2-amino-6-[5-(1-methyl-1H-pyrazol-4-yl)-1H-pyrrolo[2,3-b]pyridin-3-yl]-pyrimidin-4-yl}-1-(3-fluorophenyl)-2-methylpropan-1-ol], for which the IC50 against PDK1 is 0.056 µM; in test [1] (Homo sapiens, PC-3, 0.5 h), 0.11 µM.

Consider `COCO[C@](C)(c1ccncc1)c1cc(-c2c[nH]c3ncc(Br)cc23)nc(N)n1` (single isomer, unassigned) [A139], for which the concentration for half-maximal inhibition (IC50) came to 0.21 µM at PDK1 and 7 µM in test [1] (Homo sapiens, PC-3, 0.5 h).

In the case of `CC[C@@](O)(c1cc(-c2c[nH]c3ncc(-c4cnn(C)c4)cc23)nc(N)n1)c1cccc(F)c1F` (single isomer, unassigned) [A126], the IC50 against PDK1 turned out to be 0.066 µM; in test [1] (Homo sapiens, PC-3, 0.5 h) it was 0.002 µM.

For `CC(O)(c1cccc(F)c1)c1cc(-c2c[nH]c3ncc(-c4cnn(C(C)(C)C)c4)cc23)nc(N)n1` (stereo not shown) [A120, 1-{2-amino-6-[5-(1-tert-butyl-1H-pyrazol-4-yl)-1H-pyrrolo[2,3-b]pyridin-3-yl]-pyrimidin-4-yl}-1-(3-fluorophenyl)ethanol], the IC50 came out at 0.25 µM at PDK1 and 1.1 µM in test [1] (Homo sapiens, PC-3, 0.5 h).

On to `COCO[C@@](C)(c1ccncc1)c1cc(-c2c[nH]c3ncc(Br)cc23)nc(N)n1` (single isomer, unassigned) [A140], for which the IC50 came out at 0.22 µM on PDK1 and 8.9 µM in test [1] (Homo sapiens, PC-3, 0.5 h).

As for `Cn1cc(-c2cnc3[nH]cc(-c4cc(C(C)(O)c5ccncc5)nc(N)n4)c3c2)cn1` (single isomer, unassigned) [A42, 1-{2-amino-6-[5-(1-methyl-1H-pyrazol-4-yl)-1H-pyrrolo[2,3-b]pyridin-3-yl]-pyrimidin-4-yl}-1-pyridin-4-ylethanol], the IC50 worked out at 0.0032 µM at PDK1 and 0.95 µM in test [1].

As for `CCC[C@@](O)(c1ccncc1)c1cc(-c2c[nH]c3ncc(-c4cnn(C)c4)cc23)nc(N)n1` (single isomer, unassigned) [A134], the IC50 worked out at 0.0041 µM on PDK1 and 0.28 µM in test [1] (Homo sapiens, PC-3, 0.5 h).

In the case of `Cn1cc(-c2cnc3[nH]cc(-c4cc(C(C)(O)c5ccccc5F)nc(N)n4)c3c2)cn1` (single isomer, unassigned) [A104, 1-{2-amino-6-[5-(1-methyl-1H-pyrazol-4-yl)-1H-pyrrolo[2,3-b]pyridin-3-yl]-pyrimidin-4-yl}-1-(2-fluorophenyl)ethanol], the IC50 was found to be 0.016 µM on PDK1 and 0.041 µM in test [1].

Consider `CCC(O)(c1cc[n+]([O-])cc1)c1cc(-c2c[nH]c3ncc(-c4cnn(C)c4)cc23)nc(N)n1` (stereo not shown) [A110, 1-{2-amino-6-[5-(1-methyl-1H-pyrazol-4-yl)-1H-pyrrolo[2,3-b]pyridin-3-yl]-pyrimidin-4-yl}-1-(1-oxypyridin-4-yl)propan-1-ol], for which the IC50 at PDK1 amounted to 0.0054 µM; in test [1] (Homo sapiens, PC-3, 0.5 h) it was 8.2 µM.

For the compound `CC(C)n1cc(-c2cnc3[nH]cc(-c4cc(C(C)(O)c5cccc(F)c5F)nc(N)n4)c3c2)cn1` (stereo not shown) [A114, 1-{2-amino-6-[5-(1-isopropyl-1H-pyrazol-4-yl)-1H-pyrrolo[2,3-b]pyridin-3-yl]-pyrimidin-4-yl}-1-(2,3-difluorophenyl)ethanol], the IC50 against PDK1 is 0.039 µM; in test [1] (Homo sapiens, PC-3, 0.5 h), 0.014 µM.

On to `Cn1cc(-c2cnc3[nH]cc(-c4cc([C@](C)(O)c5cccc(Cl)c5F)nc(N)n4)c3c2)cn1` (single isomer, unassigned) [A138], for which the IC50 was found to be 0.039 µM at PDK1 and 8.9 µM in test [1] (Homo sapiens, PC-3, 0.5 h).

As to `CC[C@@](O)(c1cc(-c2c[nH]c3ncc(-c4cnn(C)c4)cc23)nc(N)n1)c1ccncc1F` (single isomer, unassigned) [A132], the IC50 against PDK1 was determined as 0.032 µM; in test [1] (Homo sapiens, PC-3, 0.5 h), 0.14 µM.

In the case of `CCC(O)(c1ccncc1)c1cc(-c2c[nH]c3ncc(-c4cnn(CC(=O)N5CCCCC5)c4)cc23)nc(N)n1` (stereo not shown) [A50, 2-(4-{3-[2-amino-6-(1-hydroxy-1-pyridin-4-ylpropyl)pyrimidin-4-yl]-1H-pyrrolo[2,3-b]pyridin-5-yl}pyrazol-1-yl)-1-piperidin-1-ylethanone], the IC50 against PDK1 came to 0.004 µM; in test [1] (Homo sapiens, PC-3, 0.5 h), 0.519 µM.

Consider `CCC[C@](O)(c1ccncc1)c1cc(-c2c[nH]c3ncc(-c4cnn(C)c4)cc23)nc(N)n1` (single isomer, unassigned) [A133], for which the IC50 was determined as 0.048 µM on PDK1 and 1.9 µM in test [1] (Homo sapiens, PC-3, 0.5 h).

In the case of `CC(C)[C@](O)(c1ccccc1)c1cc(-c2c[nH]c3ncc(-c4cnn(C)c4)cc23)nc(N)n1` (single isomer, unassigned) [A128], the IC50 is 0.26 µM against PDK1 and 0.47 µM in test [1] (Homo sapiens, PC-3, 0.5 h).

Regarding `CC[C@](O)(c1ccc(F)cc1)c1cc(-c2c[nH]c3ncc(-c4cnn(C)c4)cc23)nc(N)n1` (single isomer, unassigned) [A122], the IC50 worked out at 0.071 µM at PDK1 and 0.018 µM in test [1] (Homo sapiens, PC-3, 0.5 h).

These data come from patent publication US8575163B2, “Pyrrolopyridinylpyrimidin-2-ylamine derivatives” (Merck Patent GmbH, priority 2009, dated 2013).
